Assay results reported in US11168080B2, “Dynamin-1-like protein inhibitors” (Mitobridge, Inc., priority 2017, dated 2021).

Target: Drp1 (Homo sapiens (Human), UniProt O00429)
Experiment: Drp1 Activity Screen: colorimetric (malachite green) GTPase assay
Assay type: biochemical
Conditions: 1 mM GTP, 20 min at 37° C.; for IC50: GTPase activity, 0.6 μM Drp1 preincubated with 0.1 mg/mL liposomes; for max % inh: max % inhibition of Drp1 GTPase activity, 0.6 μM Drp1, 0.1 mg/mL liposomes
Procedure: The GTPase activity of Drp1 was assayed using a colorimetric assay similar to as described previously by Leonard M. et al. “Robust colorimetric assays for dynamin's basal and stimulated GTPase activities.” Methods Enzymol. […] Briefly, for GTPase assays of purified Drp1 inhibitor samples, 0.6 μM Drp1 preincubated with 0.1 mg/mL liposomes (consisting of 80% soybean lipids/20% cardiolipin) and inhibitor was added to 1 mM GTP in a microtiter plate for 20 min at 37° C. in 4 mM MgCl2, 10 mM Hepes (pH 7.0), 100 mM KCl, 1 mM DTT. Reactions were stopped by diluting with 0.5 mM EDTA. Samples were then incubated with malachite green reagent (1 mM malachite green and 50 mM ammonium molybdate in 1 N HCl), and the absorbance at 650 nm was measured. The reaction rates, IC50 values, and max % inhibition were determined using Excel/GraphPad Prism software.

Sequence of Drp1 (O00429 whole entry): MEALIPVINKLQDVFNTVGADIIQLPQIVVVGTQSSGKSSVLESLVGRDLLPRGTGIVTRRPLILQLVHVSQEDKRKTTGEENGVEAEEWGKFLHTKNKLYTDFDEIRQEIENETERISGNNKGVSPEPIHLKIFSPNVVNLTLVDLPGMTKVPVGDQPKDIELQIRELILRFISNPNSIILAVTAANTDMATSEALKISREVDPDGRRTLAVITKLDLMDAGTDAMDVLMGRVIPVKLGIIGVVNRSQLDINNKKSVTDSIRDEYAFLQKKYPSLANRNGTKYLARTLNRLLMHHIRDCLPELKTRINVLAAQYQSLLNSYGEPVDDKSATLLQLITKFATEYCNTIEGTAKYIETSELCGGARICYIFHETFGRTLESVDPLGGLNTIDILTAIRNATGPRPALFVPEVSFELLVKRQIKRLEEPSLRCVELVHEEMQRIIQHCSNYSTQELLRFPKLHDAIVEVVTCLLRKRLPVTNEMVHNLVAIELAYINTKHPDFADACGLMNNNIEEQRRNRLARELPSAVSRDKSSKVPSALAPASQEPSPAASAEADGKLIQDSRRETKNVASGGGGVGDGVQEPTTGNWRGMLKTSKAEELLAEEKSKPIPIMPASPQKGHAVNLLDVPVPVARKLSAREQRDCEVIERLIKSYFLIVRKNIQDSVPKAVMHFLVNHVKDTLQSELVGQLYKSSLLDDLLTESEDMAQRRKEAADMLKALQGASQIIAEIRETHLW

| SMILES | IC50 [µM] | max % inh [%] |
| --- | --- | --- |
| Cc1cc(C(=O)Nc2ccc(C(=O)O)cc2F)n(Cc2csc(N3CCCCC3)n2)c1 [Compound A-66, 3-fluoro-4-(4-methyl-1-((2-(piperidin-1-yl)thiazol-4-yl)methyl)-1H-pyrrole-2-carboxamido)benzoic Acid] | 7.8 |  |
| Cc1cc(C(=O)Nc2ccc(-c3nn[nH]n3)cc2)n(Cc2cccc(N3CCCCC3)n2)c1 [Compound A-67, N-(4-(1H-tetrazol-5-yl)phenyl)-4-methyl-1-((6-(piperidin-1-yl)pyridin-2-yl)methyl)-1H-pyrrole-2-carboxamide] | 2.1 |  |
| Cc1cc(C(=O)Nc2ccc(C(=O)O)cc2)n(Cc2csc(N3CCCC(C)C3)n2)c1 (stereo not shown) [Compound A-19, 4-(4-methyl-1-((2-(3-methylpiperidin-1-yl)thiazol-4-yl)methyl)-1H-pyrrole-2-carboxamido)benzoic Acid] | 2.7 |  |
| Cc1cc(C(=O)Nc2ccc(C(=O)O)cc2)n(Cc2csc(-c3ccccc3)n2)c1 [Compound A-17, 4-(4-methyl-1-((2-phenylthiazol-4-yl)methyl)-1H-pyrrole-2-carboxamido)benzoic Acid] | 3.8 |  |
| Cc1cc(C(=O)Nc2ccc(C(=O)O)cc2)n(Cc2csc(N3CCCCCC3)n2)c1 [Compound A-18, 4-(1-((2-(azepan-1-yl)thiazol-4-yl)methyl)-4-methyl-1H-pyrrole-2-carboxamido)benzoic Acid] | 3.4 |  |
| Cc1cc(C(=O)Nc2ccc(-c3ccc(C(=O)O)cc3)cc2)n(Cc2csc(N3CCCCC3)n2)c1 [Compound A-71, 4′-(4-methyl-1-((2-(piperidin-1-yl)thiazol-4-yl)methyl)-1H-pyrrole-2-carboxamido)-[1,1′-biphenyl]-4-carboxylic Acid] | 0.72 | 83 |
| Cc1cc(C(=O)Nc2ccccn2)n(Cc2csc(N3CCCCC3)n2)c1 [Compound A-30, 4-methyl-1-((2-(piperidin-1-yl)thiazol-4-yl)methyl)-N-(pyridin-2-yl)-1H-pyrrole-2-carboxamide] | 8.7 |  |
| Cc1cc(C(=O)NCc2ccccc2)n(Cc2csc(N3CCCCC3)n2)c1 [Compound A-3, N-benzyl-4-methyl-1-((2-(piperidin-1-yl)thiazol-4-yl)methyl)-1H-pyrrole-2-carboxamide] | 4.8 | 70 |
| Cc1cc(C(=O)N[C@H]2CC[C@H](C(=O)O)CC2)n(Cc2csc(N3CCCCC3)n2)c1 [Compound A-13, trans-4-(4-methyl-1-((2-(piperidin-1-yl)thiazol-4-yl)methyl)-1H-pyrrole-2-carboxamido)cyclohexane-1-carboxylic Acid] | 5.5 |  |
| Cc1cc(C(=O)Nc2ccc(C(=O)O)cc2C)n(Cc2csc(N3CCCCC3)n2)c1 [Compound A-54, 3-Methyl-4-(4-methyl-1-((2-(piperidin-1-yl)thiazol-4-yl)methyl)-1H-pyrrole-2-carboxamido)benzoic acid] | > 100 |  |
| Cc1cc(Cn2cc(C)cc2C(=O)Nc2ccc(C(=O)O)cc2)nc(N2CCCCC2)c1 [Compound A-69, 4-(4-methyl-1-((4-methyl-6-(piperidin-1-yl)pyridin-2-yl)methyl)-1H-pyrrole-2-carboxamido)benzoic Acid] | 11.7 |  |
| Cc1cc(C(=O)NC2CCCCC2)n(Cc2csc(N3CCCCC3)n2)c1 [Compound A-26, N-cyclohexyl-4-methyl-1-((2-(piperidin-1-yl)thiazol-4-yl)methyl)-1H-pyrrole-2-carboxamide] | 1.7 |  |
| Cc1cc(C(=O)Nc2ccccc2)n(Cc2csc(N3CCCCC3)n2)c1 [Compound A-15, 4-methyl-N-phenyl-1-((2-(piperidin-1-yl)thiazol-4-yl)methyl)-1H-pyrrole-2-carboxamide] | 2.2 | 68 |
| Cc1cc(C(=O)Nc2ccc(N3CCNC3=O)cc2)n(Cc2csc(N3CCCCC3)n2)c1 [Compound A-43, 4-methyl-N-(4-(2-oxoimidazolidin-1-yl)phenyl)-1-((2-(piperidin-1-yl)thiazol-4-yl)methyl)-1H-pyrrole-2-carboxamide] | 4.3 |  |
| Cc1cc(C(=O)Nc2ccc(C(=O)O)c(F)c2)n(Cc2csc(N3CCCCC3)n2)c1 [Compound A-57, 2-fluoro-4-(4-methyl-1-((2-(piperidin-1-yl)thiazol-4-yl)methyl)-1H-pyrrole-2-carboxamido)benzoic Acid] | 2.8 |  |
| Cc1cc(C(=O)NC2CCCC2)n(Cc2csc(N3CCCCC3)n2)c1 [Compound A-25, N-cyclopentyl-4-methyl-1-((2-(piperidin-1-yl)thiazol-4-yl)methyl)-1H-pyrrole-2-carboxamide] | 5.7 |  |
| Cc1cc(C(=O)Nc2cccnc2)n(Cc2csc(N3CCCCC3)n2)c1 [Compound A-31, 4-methyl-1-((2-(piperidin-1-yl)thiazol-4-yl)methyl)-N-(pyridin-3-yl)-1H-pyrrole-2-carboxamide] | 7.6 |  |
| Cc1cc(C(=O)Nc2ccc(C(=O)O)cc2)n(Cc2csc(N3CCCCC3C)n2)c1 (stereo not shown) [Compound A-20, 4-(4-methyl-1-((2-(2-methylpiperidin-1-yl)thiazol-4-yl)methyl)-1H-pyrrole-2-carboxamido)benzoic Acid] | 3.9 |  |
| Cc1cc(C(=O)N(C)c2ccccc2)n(Cc2csc(N3CCCCC3)n2)c1 [Compound A-28, N,4-dimethyl-N-phenyl-1-((2-(piperidin-1-yl)thiazol-4-yl)methyl)-1H-pyrrole-2-carboxamide] | > 100 |  |
| Cc1cc(C(=O)NC2CCOCC2)n(Cc2csc(N3CCCCC3)n2)c1 [Compound A-29, 4-methyl-1-((2-(piperidin-1-yl)thiazol-4-yl)methyl)-N-(tetrahydro-2H-pyran-4-yl)-1H-pyrrole-2-carboxamide] | 14.4 |  |
| Cc1ccc(C(=O)Nc2ccccc2)n1Cc1csc(N2CCCCC2)n1 [Compound A-39, 5-methyl-N-phenyl-1-((2-(piperidin-1-yl)thiazol-4-yl)methyl)-1H-pyrrole-2-carboxamide] | 36 | 26 |

The next lines start with results.

| IC50 [µM] | SMILES | max % inh [%] |
| --- | --- | --- |
| 21.8 | Cc1cc(C(=O)Nc2cc(F)c(O)c(F)c2)n(Cc2csc(N3CCCCC3)n2)c1 [Compound A-24, N-(3,5-difluoro-4-hydroxyphenyl)-4-methyl-1-((2-(piperidin-1-yl)thiazol-4-yl)methyl)-1H-pyrrole-2-carboxamide] |  |
| 1.6 | Cc1cc(C(=O)Nc2ccc3ccccc3c2)n(Cc2csc(N3CCCCC3)n2)c1 [Compound A-23, 4-methyl-N-(naphthalen-2-yl)-1-((2-(piperidin-1-yl)thiazol-4-yl)methyl)-1H-pyrrole-2-carboxamide] |  |
| 0.91 | Cc1cc(C(=O)Nc2ccc(-c3nn[nH]n3)cc2)n(Cc2csc(N3CCCCC3)n2)c1 [Compound A-7, N-(4-(1H-tetrazol-5-yl)phenyl)-4-methyl-1-((2-(piperidin-1-yl)thiazol-4-yl)methyl)-1H-pyrrole-2-carboxamide] |  |
| 39 | Cc1cc(C(=O)N[C@H]2CC[C@@H](C(=O)O)CC2)n(Cc2csc(N3CCCCC3)n2)c1 [Compound A-14, cis-4-(4-methyl-1-((2-(piperidin-1-yl)thiazol-4-yl)methyl)-1H-pyrrole-2-carboxamido)cyclohexane-1-carboxylic Acid] |  |
| 17 | Cc1cc(C(=O)Nc2ccc(C(=O)O)nc2)n(Cc2csc(N3CCCCC3)n2)c1 [Compound A-62, 5-(4-methyl-1-((2-(piperidin-1-yl)thiazol-4-yl)methyl)-1H-pyrrole-2-carboxamido)picolinic Acid] |  |
| 1.2 | Cc1cc(C(=O)Nc2ccc(-c3cccnc3)cc2)n(Cc2csc(N3CCCCC3)n2)c1 [Compound A-35, 4-methyl-1-((2-(piperidin-1-yl)thiazol-4-yl)methyl)-N-(4-(pyridin-3-yl)phenyl)-1H-pyrrole-2-carboxamide] |  |
| 9 | Cc1cc(C(=O)NC2COc3ccccc3C2)n(Cc2csc(N3CCCCC3)n2)c1 (stereo not shown) [Compound A-34, N-(chroman-3-yl)-4-methyl-1-((2-(piperidin-1-yl)thiazol-4-yl)methyl)-1H-pyrrole-2-carboxamide] |  |
| 2.5 | Cc1cc(C(=O)Nc2ccc(S(N)(=O)=O)cc2)n(Cc2csc(N3CCCCC3)n2)c1 [Compound A-8, 4-methyl-1-((2-(piperidin-1-yl)thiazol-4-yl)methyl)-N-(4-sulfamoylphenyl)-1H-pyrrole-2-carboxamide] |  |
| 2.2 | O=C(Nc1ccc(-c2nn[nH]n2)cc1)c1cc(-c2ccccc2)cn1Cc1csc(N2CCCCC2)n1 [Compound A-58, N-(4-(1H-tetrazol-5-yl)phenyl)-4-phenyl-1-((2-(piperidin-1-yl)thiazol-4-yl)methyl)-1H-pyrrole-2-carboxamide] |  |
| 1.8 | CNC(=O)c1ccc(NC(=O)c2cc(C)cn2Cc2csc(N3CCCCC3)n2)cc1 [Compound A-22, 4-methyl-N-(4-(methylcarbamoyl)phenyl)-1-((2-(piperidin-1-yl)thiazol-4-yl)methyl)-1H-pyrrole-2-carboxamide] |  |
| 1.2 | Cc1cc(C(=O)Nc2ccc(-c3cn[nH]c3)cc2)n(Cc2csc(N3CCCCC3)n2)c1 [Compound A-37, N-(4-(1H-pyrazol-4-yl)phenyl)-4-methyl-1-((2-(piperidin-1-yl)thiazol-4-yl)methyl)-1H-pyrrole-2-carboxamide] |  |
| 11.9 | Cc1cc(C(=O)Nc2ccc(C(=O)O)cc2)n(Cc2nc(N3CCCCC3)sc2C)c1 [Compound A-21, 4-(4-methyl-1-((5-methyl-2-(piperidin-1-yl)thiazol-4-yl)methyl)-1H-pyrrole-2-carboxamido)benzoic Acid] |  |
